No end group written: not given here.
Assays:
Format in all cases: cell-based
KS Y-1 cells = experiment: KS Y-1 cell proliferation assay (MTT); conditions: concentration not given
Description: (§1) To determine if Saposin B polypeptides had anti-angiogenic activity, a series of overlapping polypeptides were synthesized and tested in the KS Y-1 cell proliferation assay. The overlapping polypeptides are SEQ ID NOs:13 though 43. Cell Proliferation assays in either KS cells or fibroblast. Cells were plated in 48 well plates at equal numbers in appropriate culture medium. Cells were treated with the test compounds at various concentrations on day one, and on day 3. MTT was done on day 5. KS cells were used to represent the activated endothelial cells, while fibroblast cells represent the control cells. The results are remarkable for the lack of toxicity to the fibroblast relative to the activated endothelial cells/KS cells.

fibroblast cells (T1) = experiment: Fibroblast proliferation assay (MTT), control cells; conditions: for Cell Proliferation Activity (% of control), T1: concentration not printed
Description: as §1

[1] = test system: endothelial cells (HUVEC); experiment: Growth inhibition of endothelial cells
Description: (§2) Typically, in an anti-proliferation assay, the suppression of growth in the presence of the compound to be tested is measured. For example, the above cells are incubated with the polypeptides of this invention for a suitable time and the decrease in the growth rate relative to a negative control, i.e., cells of the same cell line which have been incubated in media alone, is measured. Growth of the cell culture can be measured by any method acceptable to one of skill, including but not limited to, 3H-thymidine uptake, cell counting and tetrazolium dye uptake.
(§3) By SDS-PAGE, the bacterial product was smaller than the eukaryotic protein. Because prokaryotically expressed proteins are not glycosylated, the difference in molecular weights probably represents the presence of carbohydrate in the eukaryotic protein. Recombinant proteins were then tested in KS, endothelial and control cell lines. Activity was found only in KS cell lines and endothelial cells.

KS cell lines = experiment: Growth inhibition of KS cell lines by recombinant proteins; conditions: up to the highest concentration tested (50 μg/mL)
Description: as §2, §3

CQDCIQMV [SEQ ID NO:30]
Cell Proliferation Activity (% of control), KS Y-1 (KS Y-1 cells; KS Y-1, first value column): 77 % of control
Cell Proliferation Activity (% of control), KS Y-1 (KS Y-1 cells; KS Y-1): 35 % of control
Cell Proliferation Activity (% of control), T1 (fibroblast cells (T1); T1, first value column): 92 % of control
Cell Proliferation Activity (% of control), T1 (fibroblast cells (T1); T1, second value column): 84 % of control

DCIQMV [SEQ ID NO:23]
Cell Proliferation Activity (% of control), KS Y-1 (KS Y-1 cells; KS Y-1, first value column): 68 % of control
Cell Proliferation Activity (% of control), KS Y-1 (KS Y-1 cells; KS Y-1): 51 % of control

DVCQDC [SEQ ID NO:27]
Cell Proliferation Activity (% of control), KS Y-1 (KS Y-1 cells; KS Y-1, first value column): 60 % of control
Cell Proliferation Activity (% of control), KS Y-1 (KS Y-1 cells; KS Y-1): 22 % of control
Cell Proliferation Activity (% of control), T1 (fibroblast cells (T1); T1, first value column): 88 % of control
Cell Proliferation Activity (% of control), T1 (fibroblast cells (T1); T1, second value column): 75 % of control

DVCQDCI [SEQ ID NO:26]
Cell Proliferation Activity (% of control), KS Y-1 (KS Y-1 cells; KS Y-1, first value column): 72 % of control
Cell Proliferation Activity (% of control), KS Y-1 (KS Y-1 cells; KS Y-1): 40 % of control
Cell Proliferation Activity (% of control), T1 (fibroblast cells (T1); T1, first value column): 96 % of control
Cell Proliferation Activity (% of control), T1 (fibroblast cells (T1); T1, second value column): 81 % of control

DVCQDCIQ [SEQ ID NO:25]
Cell Proliferation Activity (% of control), KS Y-1 (KS Y-1 cells; KS Y-1, first value column): 72 % of control
Cell Proliferation Activity (% of control), KS Y-1 (KS Y-1 cells; KS Y-1): 39 % of control
Cell Proliferation Activity (% of control), T1 (fibroblast cells (T1); T1, first value column): 98 % of control
Cell Proliferation Activity (% of control), T1 (fibroblast cells (T1); T1, second value column): 89 % of control

DVCQDCIQM [SEQ ID NO:24]
Cell Proliferation Activity (% of control), KS Y-1 (KS Y-1 cells; KS Y-1, first value column): 68 % of control
Cell Proliferation Activity (% of control), KS Y-1 (KS Y-1 cells; KS Y-1): 46 % of control
Cell Proliferation Activity (% of control), T1 (fibroblast cells (T1); T1, first value column): 96 % of control
Cell Proliferation Activity (% of control), T1 (fibroblast cells (T1); T1, second value column): 84 % of control

DVCQDCIQMV [SEQ ID NO:21]
Cell Proliferation Activity (% of control), KS Y-1 (KS Y-1 cells; KS Y-1, first value column): 29 % of control
Fibroblast Proliferation, % of Control (fibroblast cells (T1); 1 μg/mL): 100.0 % of Control
Fibroblast Proliferation, % of Control (fibroblast cells (T1); 50 μg/mL): 87.0 % of Control
growth inhibition / activity against endothelial cells [1]: Only endothelial cells show dose dependent growth inhibition

GDVCQ [SEQ ID NO:22]
Cell Proliferation Activity (% of control), KS Y-1 (KS Y-1 cells; KS Y-1, first value column): 59 % of control
Cell Proliferation Activity (% of control), KS Y-1 (KS Y-1 cells; KS Y-1): 28 % of control
Fibroblast Proliferation, % of Control (fibroblast cells (T1); 1 μg/mL): 95.7 % of Control
Fibroblast Proliferation, % of Control (fibroblast cells (T1); 10 μg/mL): 95.7 % of Control
Fibroblast Proliferation, % of Control (fibroblast cells (T1); 50 μg/mL): 87.0 % of Control

GDVSQDSIQMV [SEQ ID NO:20]
Cell Proliferation Activity (% of control), KS Y-1 (KS Y-1 cells; KS Y-1, first value column): 93 % of control
Cell Proliferation Activity (% of control), KS Y-1 (KS Y-1 cells; KS Y-1): 84 % of control
Fibroblast Proliferation, % of Control (fibroblast cells (T1); 10 μg/mL): 95.7 % of Control
Fibroblast Proliferation, % of Control (fibroblast cells (T1); 50 μg/mL): 95.7 % of Control

QDCIQMV [SEQ ID NO:31, QDCIQMV]
Cell Proliferation Activity (% of control), KS Y-1 (KS Y-1 cells; KS Y-1, first value column): 74 % of control
Cell Proliferation Activity (% of control), T1 (fibroblast cells (T1); T1, first value column): 87 % of control
Cell Proliferation Activity (% of control), T1 (fibroblast cells (T1); T1, second value column): 80 % of control

VCQDCIQMV [SEQ ID NO:29]
Cell Proliferation Activity (% of control), KS Y-1 (KS Y-1 cells; KS Y-1, first value column): 65 % of control
Cell Proliferation Activity (% of control), KS Y-1 (KS Y-1 cells; KS Y-1): 33 % of control
Cell Proliferation Activity (% of control), T1 (fibroblast cells (T1); T1, first value column): 95 % of control
Cell Proliferation Activity (% of control), T1 (fibroblast cells (T1); T1, second value column): 86 % of control

B1: Saposin C: sphingolipid-binding glycoprotein derived from Prosaposin, recombinant (protein, UniProt P07602 311-390, looked up)
Saposin-C: SDVYCEVCEFLVKEVTKLIDNNKTEKEILDAFDKMCSKLPKSLSEECQEVVDTYGSSILSILLEEVSPELVCSMLHLCSG
modifications: Saposin-C
activity against KS cell lines (KS cell lines): no activity
activity against endothelial cells ([1]; up to the highest concentration tested (50 μg/mL)): no activity
